Format in all cases: biochemical
For one experiment, the target named is T1, PAD3 (Homo sapiens, UniProt Q9ULW8).
T1 construct: made in house
T1 sequence (Q9ULW8 1-664): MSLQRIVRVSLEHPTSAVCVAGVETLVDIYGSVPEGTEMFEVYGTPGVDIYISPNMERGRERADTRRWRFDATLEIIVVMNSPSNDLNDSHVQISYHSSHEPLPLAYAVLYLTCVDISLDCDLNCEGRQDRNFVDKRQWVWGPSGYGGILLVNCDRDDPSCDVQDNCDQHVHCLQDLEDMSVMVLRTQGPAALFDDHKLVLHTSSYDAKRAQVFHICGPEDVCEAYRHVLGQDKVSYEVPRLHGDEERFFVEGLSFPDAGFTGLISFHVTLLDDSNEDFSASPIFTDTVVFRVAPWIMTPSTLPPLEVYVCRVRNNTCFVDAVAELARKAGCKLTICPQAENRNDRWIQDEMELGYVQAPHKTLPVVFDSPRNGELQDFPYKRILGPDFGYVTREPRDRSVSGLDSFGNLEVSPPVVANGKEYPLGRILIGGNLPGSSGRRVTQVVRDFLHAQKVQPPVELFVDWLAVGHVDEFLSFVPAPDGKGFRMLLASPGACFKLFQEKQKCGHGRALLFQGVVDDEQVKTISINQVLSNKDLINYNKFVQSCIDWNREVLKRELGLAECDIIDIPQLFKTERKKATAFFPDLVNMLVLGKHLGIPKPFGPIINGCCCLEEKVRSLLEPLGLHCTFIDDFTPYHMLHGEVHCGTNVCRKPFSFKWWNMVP
Nature of the experiment: Inactivation kinetics, PAD3. Particulars: for kinact/KI: a: single kobs determined; for Fold PAD3 Selectivity: kinact/KI relative to least inhibited isozyme (1.0). The procedure, abridged: (§1)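 PAD1, 2 or 4 (2.0 μM) or PAD3 (5.0 μM) preincubated at 37 °C with varying inhibitor in 50 mM HEPES, 10 mM CaCl2, 2 mM DTT, pH 7.6. Timed aliquots assayed 15 min with 10 mM BAEE (BAA for PAD3); citrulline quantified by COLDER.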

The target in a further experiment is T2, PAD1 (Homo sapiens, UniProt Q9ULC6).
T2 construct: made in house
T2 sequence (Q9ULC6 1-663): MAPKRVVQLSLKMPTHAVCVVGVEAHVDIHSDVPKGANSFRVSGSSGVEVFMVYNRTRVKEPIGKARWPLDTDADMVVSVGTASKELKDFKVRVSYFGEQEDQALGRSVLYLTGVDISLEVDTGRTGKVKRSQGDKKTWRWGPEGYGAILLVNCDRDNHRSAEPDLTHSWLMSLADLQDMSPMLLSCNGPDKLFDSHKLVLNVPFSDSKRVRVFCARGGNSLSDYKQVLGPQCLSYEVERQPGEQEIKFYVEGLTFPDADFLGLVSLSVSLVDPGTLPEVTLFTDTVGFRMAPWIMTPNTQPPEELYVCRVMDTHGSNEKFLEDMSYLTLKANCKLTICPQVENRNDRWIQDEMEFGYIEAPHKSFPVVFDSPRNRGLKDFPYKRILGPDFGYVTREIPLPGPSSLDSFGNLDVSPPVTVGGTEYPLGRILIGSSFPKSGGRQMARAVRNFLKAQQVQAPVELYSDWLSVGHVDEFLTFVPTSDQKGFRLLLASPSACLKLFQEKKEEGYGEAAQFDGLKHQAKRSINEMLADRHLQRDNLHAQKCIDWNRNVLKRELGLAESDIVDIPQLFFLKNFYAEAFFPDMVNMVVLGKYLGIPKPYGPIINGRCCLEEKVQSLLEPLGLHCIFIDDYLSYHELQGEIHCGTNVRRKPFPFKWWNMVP
Nature of the experiment: Inactivation kinetics, PAD1. Particulars: for kinact/KI: a: single kobs determined, b: from a linear fit; for Fold PAD1 Selectivity: kinact/KI relative to least inhibited isozyme (1.0). The procedure, abridged: as §1

Another experiment addresses T3, PAD2 (Homo sapiens, UniProt Q9Y2J8).
T3 construct: made in house
Briefly: Inactivation kinetics, PAD2. The following applies: for kinact/KI: a: single kobs determined, b: from a linear fit, other footnotes: from kinact and KI; for Fold PAD2 Selectivity: kinact/KI relative to least inhibited isozyme (1.0); for pKi / kinact: PAD2, table footnote. An outline of the steps: as §1

The target of another experiment is T4, PAD4 (Homo sapiens, UniProt Q9UM07).
T4 construct: made in house
Nature of the experiment: Inactivation kinetics, PAD4. Particulars: for kinact/KI: a: single kobs determined, b: from a linear fit; for Fold PAD4 Selectivity: kinact/KI relative to least inhibited isozyme (1.0). The procedure, abridged:
as §1

pKi: −log10 of the molar value.

The source of these data is US11208386B2, “Inhibitors of protein arginine deiminases (PADs) and methods of preparation and use thereof” (University of Massachusetts, priority 2016, dated 2021).

T3 sequence (Q9Y2J8 whole entry): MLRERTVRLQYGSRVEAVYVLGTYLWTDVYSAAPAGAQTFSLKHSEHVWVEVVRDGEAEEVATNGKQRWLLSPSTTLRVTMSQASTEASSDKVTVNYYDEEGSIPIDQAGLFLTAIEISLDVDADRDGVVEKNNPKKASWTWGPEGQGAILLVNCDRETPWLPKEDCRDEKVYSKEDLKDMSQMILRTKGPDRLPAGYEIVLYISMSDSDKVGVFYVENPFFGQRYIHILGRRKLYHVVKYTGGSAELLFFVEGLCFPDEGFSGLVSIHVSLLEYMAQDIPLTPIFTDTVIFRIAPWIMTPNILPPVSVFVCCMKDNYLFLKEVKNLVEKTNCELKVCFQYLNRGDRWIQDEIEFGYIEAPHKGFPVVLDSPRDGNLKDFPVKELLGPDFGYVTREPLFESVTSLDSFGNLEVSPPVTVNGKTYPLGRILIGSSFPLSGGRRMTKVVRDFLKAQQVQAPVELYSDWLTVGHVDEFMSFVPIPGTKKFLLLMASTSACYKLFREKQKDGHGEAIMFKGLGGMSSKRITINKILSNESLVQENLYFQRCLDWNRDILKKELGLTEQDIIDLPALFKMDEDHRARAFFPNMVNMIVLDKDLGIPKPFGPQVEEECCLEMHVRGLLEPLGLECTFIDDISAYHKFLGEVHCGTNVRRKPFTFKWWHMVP
T4 sequence (Q9UM07 whole entry): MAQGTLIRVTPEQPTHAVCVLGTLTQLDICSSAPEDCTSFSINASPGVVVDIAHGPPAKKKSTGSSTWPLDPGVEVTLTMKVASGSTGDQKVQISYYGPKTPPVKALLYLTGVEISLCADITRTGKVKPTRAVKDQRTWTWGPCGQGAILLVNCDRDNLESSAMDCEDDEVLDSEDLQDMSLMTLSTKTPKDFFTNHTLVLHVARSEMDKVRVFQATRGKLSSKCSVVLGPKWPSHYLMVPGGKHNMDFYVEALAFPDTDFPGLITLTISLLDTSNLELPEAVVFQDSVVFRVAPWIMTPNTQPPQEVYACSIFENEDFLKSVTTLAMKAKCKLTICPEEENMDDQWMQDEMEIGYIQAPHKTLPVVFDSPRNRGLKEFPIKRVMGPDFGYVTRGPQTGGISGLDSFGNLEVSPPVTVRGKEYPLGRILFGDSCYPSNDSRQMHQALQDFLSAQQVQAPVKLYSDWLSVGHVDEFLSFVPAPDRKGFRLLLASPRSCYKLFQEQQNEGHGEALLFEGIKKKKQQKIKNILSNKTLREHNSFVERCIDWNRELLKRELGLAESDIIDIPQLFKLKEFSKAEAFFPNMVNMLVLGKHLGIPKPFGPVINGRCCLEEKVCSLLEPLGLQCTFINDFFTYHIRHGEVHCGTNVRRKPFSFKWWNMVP

What is called kinact/KI is the second-order rate constant of inactivation. As to `COc1cccc2[nH]c([C@H](CCCNC(=N)CCl)NC(=O)c3cccc4c3C(=O)NC4)nc12` [Compound 7j, N1-(3-oxoisoindoline)benzoyl-N5-(2-chloro-1-iminoethyl)-1-(4-methoxy-1H-benzo[d]imidazol-2-yl)-L-ornithine], at PAD3, the kinact/KI is 502 M⁻¹ s⁻¹ and the “Fold PAD3 Selectivity” value was 6.9 fold. Moreover, at PAD1, the kinact/KI was 2180 M⁻¹ s⁻¹ and the “Fold PAD1 Selectivity” value is reported as 30 fold. Besides, on PAD2, the kinact/KI was 802 M⁻¹ s⁻¹ and the “Fold PAD2 Selectivity” value turned out to be 11 fold. On PAD4, the kinact/KI was 72.3 M⁻¹ s⁻¹ and the “Fold PAD4 Selectivity” value was found to be 1.0 fold.

As usually defined, the pKi is −log10 of the Ki, conventionally taken in molar units. A lower pKi goes with a large Ki. By kinact is commonly meant the maximal first-order rate at which the target is inactivated. `COc1cccc2c1nc([C@H](CCCNC(=N)CF)NC(=O)c1cccc3c1C(=O)NC3)n2C` [Compound 7k, N1-(3-oxoisoindoline)benzoyl-N5-(2-fluoro-1-iminoethyl)-1-(4-methoxy-1-methyl-benzo[d]imidazol-2-yl)-L-ornithine]: on PAD3, the kinact/KI was 73.8 M⁻¹ s⁻¹ and the “Fold PAD3 Selectivity” value was found to be 1.0 fold. Besides, on PAD1, the kinact/KI was 2150 M⁻¹ s⁻¹ and the “Fold PAD1 Selectivity” value came out at 29 fold. Also, at PAD2, the pKi is 4.78, the kinact turned out to be 0.0578 s⁻¹, the kinact/KI was 3500 M⁻¹ s⁻¹ and the “Fold PAD2 Selectivity” value is 47 fold. Further, at PAD4, the kinact/KI was 238 M⁻¹ s⁻¹ and the “Fold PAD4 Selectivity” value came to 3.2 fold.

As to `COc1cccc2c1nc([C@H](CCCNC(=N)CCl)NC(=O)c1cccc3c1C(=O)NC3)n2C` [Compound 7l, N1-(3-oxoisoindoline)benzoyl-N5-(2-chloro-1-iminoethyl)-1-(4-methoxy-1-methyl-benzo[d]imidazol-2-yl)-L-ornithine], at PAD3, the kinact/KI was 332 M⁻¹ s⁻¹ and the “Fold PAD3 Selectivity” value is given as 1.0 fold. On PAD1, the kinact/KI was 1300 M⁻¹ s⁻¹ and the “Fold PAD1 Selectivity” value is on record as 3.9 fold. On PAD2, the kinact/KI is 1300 M⁻¹ s⁻¹ and the “Fold PAD2 Selectivity” value was found to be 3.9 fold. For the same compound, at PAD4, the kinact/KI was 422 M⁻¹ s⁻¹ and the “Fold PAD4 Selectivity” value came to 1.3 fold.

Regarding `CCOc1cccc2c1nc([C@H](CCCNC(=N)CF)NC(=O)c1cccc3c1C(=O)NC3)n2C` [Compound 7m], at PAD3, the kinact/KI was 20 M⁻¹ s⁻¹ and the “Fold PAD3 Selectivity” value turned out to be 1.2 fold. Besides, on PAD1, the kinact/KI was 1070 M⁻¹ s⁻¹ and the “Fold PAD1 Selectivity” value is listed as 65 fold. Also, at PAD2, the pKi was 4.26, the kinact came to 0.0868 s⁻¹, the kinact/KI is 1570 M⁻¹ s⁻¹ and the “Fold PAD2 Selectivity” value is 95 fold. Moreover, on PAD4, the kinact/KI was 16.5 M⁻¹ s⁻¹ and the “Fold PAD4 Selectivity” value was 1.0 fold.

For `CCOc1cccc2c1nc([C@H](CCCNC(=N)CCl)NC(=O)c1cccc3c1C(=O)NC3)n2C` [Compound 7n], at PAD3, the kinact/KI was 108 M⁻¹ s⁻¹ and the “Fold PAD3 Selectivity” value was 2.7 fold. Further, on PAD1, the kinact/KI was 982 M⁻¹ s⁻¹ and the “Fold PAD1 Selectivity” value is reported as 24 fold. In addition, on PAD2, the kinact/KI is 1200 M⁻¹ s⁻¹ and the “Fold PAD2 Selectivity” value was determined as 30 fold. Also, on PAD4, the kinact/KI was 40.2 M⁻¹ s⁻¹ and the “Fold PAD4 Selectivity” value was 1.0 fold.

Take `COc1ccc2c(c1)nc([C@H](CCCNC(=N)CF)NC(=O)c1cccc3c1C(=O)NC3)n2C` [Compound 7o, N1-(3-oxoisoindoline)benzoyl-N5-(2-fluoro-1-iminoethyl)-1-(5-methoxy-1-methyl-benzo[d]imidazol-2-yl)-L-ornithine]: on PAD3, the kinact/KI is 17.2 M⁻¹ s⁻¹ and the “Fold PAD3 Selectivity” value amounted to 1.0 fold. Further, at PAD1, the kinact/KI is 2080 M⁻¹ s⁻¹ and the “Fold PAD1 Selectivity” value is reported as 121 fold. Besides, at PAD2, the pKi was 4.68, the kinact was 0.0403 s⁻¹, the kinact/KI was 1960 M⁻¹ s⁻¹ and the “Fold PAD2 Selectivity” value was determined as 114 fold. At PAD4, the kinact/KI is 20.5 M⁻¹ s⁻¹ and the “Fold PAD4 Selectivity” value is recorded as 1.2 fold.
